In brackets after ≈: the same amount, converted by molar mass. Like-named read-outs stand apart in the source and are kept apart here.
How the values were obtained:
S. typhi [1] = experiment: Tube dilution MIC; type: cell-based; conditions: Salmonella enterica, 24 h, read-out: MIC S. typhi
S. aureus [2] = experiment: Tube dilution MIC; conditions: Staphylococcus aureus, 24 h, read-out: MIC S. aureus
B. cereus [3] = experiment: Tube dilution MIC; conditions: Bacillus cereus, 24 h, read-out: MIC B. cereus
B. subtilis [4] = experiment: Tube dilution MIC; conditions: Bacillus subtilis, 24 h, read-out: MIC B. subtilis
E. coli [5] = experiment: Tube dilution MIC; conditions: Escherichia coli, 24 h, read-out: MIC E. coli
B. cereus [6] = experiment: MBC by subculturing; type: cell-based
Experimental: (§1) The minimum bactericidal concentration (MBC) and minimum fungicidal concentration (MFC) of the synthesized benzimidazole derivatives was determined by subculturing 100 µl of culture from each tube that remained clear in MIC determination onto sterilized petri-plates containing fresh agar medium. The petri-plates were incubated and analyzed for microbial growth visually.

B. subtilis [7] = experiment: MBC by subculturing; type: cell-based
Experimental: as §1

E. coli [8] = experiment: MBC by subculturing; type: cell-based; conditions: Escherichia coli
Experimental: as §1

S. aureus [9] = experiment: MBC by subculturing; type: cell-based; conditions: Staphylococcus aureus
Experimental: as §1

S. typhi [10] = experiment: MBC by subculturing; type: cell-based; conditions: Salmonella enterica, read-out: MBC S. typhi
Experimental: as §1

A. niger [11] = experiment: MFC by subculturing; type: cell-based
Experimental: as §1

C. albicans [12] = experiment: MFC by subculturing; type: cell-based
Experimental: as §1

C. albicans [13] = experiment: microbe, parasite or virus in culture; conditions: Candida albicans, 48 h, read-out: MIC C. albicans
A. niger [14] = experiment: microbe, parasite or virus in culture; conditions: Aspergillus niger, 168 h, read-out: MIC A. niger
[15] = tested on: M. tuberculosis H37Rv (NCFT/TB/537); experiment: Well diffusion susceptibility test (zone of inhibition); type: cell-based; conditions: Mycobacterium tuberculosis, 672 h, read-out: Diameter of zone of inhibition against H37Rv (NCFT/TB/537), wells of 8 mm, 50 µg/ml test compound, 25 µg/ml standard drug, 4 weeks, NA = no activity
M. tuberculosis H37Rv [16] = experiment: MIC by microplate alamar blue assay; type: cell-based; conditions: Mycobacterium tuberculosis, NA = no activity, read-out: MIC against M. tuberculosis H37Rv
M. tuberculosis H37Rv [17] = experiment: Minimum lethal concentration (MLC); type: cell-based; conditions: Mycobacterium tuberculosis, NA = no activity, read-out: MLC against M. tuberculosis H37Rv
[18] = tested on: MCF7 (human breast cancer) cell line; experiment: Sulforhodamine-B (SRB) cytotoxicity assay; type: cell-based; conditions: SRB assay, MCF7 cell line, read-out: IC50 MCF7
[19] = tested on: HCT116 (human colorectal) cell line; experiment: Sulforhodamine-B (SRB) cytotoxicity assay; type: cell-based; conditions: HCT-116, SRB assay, HCT116 cell line, read-out: IC50 HCT116
[20] = In vivo LD50, ED50 and toxic dose in mice models; conditions: mouse, dose that killed 50% of the mice population within the group
Experimental: The LD50 and ED50 were determined for the active compounds in mice models infected with Mycobacterium H37Rv (Table 4). […] Thus, ED50 of 1.34 mg/kg was considered safe for each of the compounds. It was observed that this dose was effective and safe for mice in different groups before infecting the mice models with specific TB bacteria as no mortality of any single animal was recorded.
The LD50 (lethal dose) and ED50 (optimum/effective dose) doses were determined for the active compounds in mice models infected with Mycobacterium H37Rv via ethical permission no., NCFT/EC/16/2313 assigned to Collaborative Research Group (CRG), NCFT, New Delhi, India.

[21] = target: mycobacterial isocitrate lyase (Mycobacterium tuberculosis, UniProt P9WKK7); experiment: Mycobacterial isocitrate lyase (ICL) assay; type: biochemical, M. tuberculosis H37Rv; conditions: read-out: Percent inhibition of enzyme, M. ICL activity
Experimental: The compounds found potent in in vivo evaluation were assayed for inhibition of mycobacterial enzymes viz., isocitrate lyase, pantothenate synthetase and chorismate mutase.
Isocitrate lyase activity was assayed according to the protocol reported by Dixon and Kornberg (glyoxylate phenyl hydrazone formation) at 10 μM of the compounds.

[22] = Bacillus cereus; read-out: MBC B. cereus
[23] = Bacillus subtilis; read-out: MBC B. subtilis
[24] = Aspergillus niger; read-out: MFC A. niger
[25] = Candida albicans; read-out: MFC C. albicans
[26] = Bacillus cereus, read-out: MBC B. cereus
[27] = Bacillus subtilis, read-out: MBC B. subtilis
[28] = Aspergillus niger, read-out: MFC A. niger
[29] = Candida albicans, read-out: MFC C. albicans

mycobacterial isocitrate lyase, sequence (P9WKK7 whole entry): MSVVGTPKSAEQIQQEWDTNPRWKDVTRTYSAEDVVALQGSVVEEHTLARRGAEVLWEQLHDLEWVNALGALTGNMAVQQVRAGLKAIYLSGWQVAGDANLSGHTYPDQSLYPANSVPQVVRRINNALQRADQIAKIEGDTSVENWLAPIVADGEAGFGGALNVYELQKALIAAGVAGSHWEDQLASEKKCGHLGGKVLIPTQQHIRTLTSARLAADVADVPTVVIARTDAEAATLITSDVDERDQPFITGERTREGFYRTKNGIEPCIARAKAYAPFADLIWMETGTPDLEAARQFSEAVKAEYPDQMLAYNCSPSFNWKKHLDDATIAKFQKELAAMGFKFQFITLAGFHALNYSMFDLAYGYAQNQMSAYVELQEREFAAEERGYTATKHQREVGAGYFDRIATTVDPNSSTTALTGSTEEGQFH

| SMILES | MIC (S. typhi [1]) | MIC (S. aureus [2]) | MIC (B. cereus [3]) | MIC (B. subtilis [4]) | MIC (E. coli [5]) | MBC (B. cereus [6]; [22]) | MBC (B. subtilis [7]; [23]) | MBC (E. coli [8]) | MBC (S. aureus [9]) | MBC (S. typhi [10]) | MFC (A. niger [11]; [24]) | MFC (C. albicans [12]; [25]) | MIC (C. albicans [13]) | MIC (A. niger [14]) | zone of inhibition at 50 µg/mL [15] | MIC (M. tuberculosis H37Rv [16]) | MBC (M. tuberculosis H37Rv [17]) | other results |
| --- | --- | --- | --- | --- | --- | --- | --- | --- | --- | --- | --- | --- | --- | --- | --- | --- | --- | --- |
| CC1=C(C(=O)O)N2C(=O)[C@@H](NC(=O)[C@H](N)c3ccc(O)cc3)[C@H]2SC1 [Cefadroxil, reference compound] | 370 µM (≈ 134 µg/mL) | 370 µM (≈ 134 µg/mL) | 370 µM (≈ 134 µg/mL) | 370 µM (≈ 134 µg/mL) | 370 µM (≈ 134 µg/mL) | – | – | – | – | – | – | – | – | – | – | – | – | – |
| Cc1cccc(NC(=O)CSc2nc3ccccc3n2C(=O)c2ccccc2)c1 [Compound 19, 2-(1-Benzoyl-1H-benzo[d]imidazol-2-ylthio)-N-m-tolylacetamide] | 31 µM (≈ 12.4 µg/mL) | 31 µM (≈ 12.4 µg/mL) | 31 µM (≈ 12.4 µg/mL) | 31 µM (≈ 12.4 µg/mL) | 31 µM (≈ 12.4 µg/mL) | > 50 µg/mL | 50 µg/mL (≈ 125 µM) | > 50 µg/mL | 50 µg/mL (≈ 125 µM) | > 50 µg/mL | > 50 µg/mL | 50 µg/mL (≈ 125 µM) | 16 µM (≈ 6.42 µg/mL) | 31 µM (≈ 12.4 µg/mL) | – | – | – | – |
| Cc1ccccc1NC(=O)CSc1nc2ccccc2n1C(=O)c1ccccc1 [Compound 16, 2-(1-Benzoyl-1H-benzo[d]imidazol-2-ylthio)-N–o-tolylacetamide] | 31 µM (≈ 12.4 µg/mL) | 31 µM (≈ 12.4 µg/mL) | 31 µM (≈ 12.4 µg/mL) | 31 µM (≈ 12.4 µg/mL) | 31 µM (≈ 12.4 µg/mL) | > 50 µg/mL | 50 µg/mL (≈ 125 µM) | > 50 µg/mL | 50 µg/mL (≈ 125 µM) | 50 µg/mL (≈ 125 µM) | > 50 µg/mL | 25 µg/mL (≈ 62.3 µM) | 16 µM (≈ 6.42 µg/mL) | 31 µM (≈ 12.4 µg/mL) | 10 mm | 15 µg/mL (≈ 37.4 µM) | 28 µg/mL (≈ 69.7 µM) | IC50 [18]: 124 µM; IC50 [19]: 87.2 µM |
| Cc1ccc(NC(=O)CSc2nc3ccccc3n2C(=O)c2ccccc2)c(C)c1 [Compound 20, 2-(1-Benzoyl-1H-benzo[d]imidazol-2-ylthio)-N-(2,4-dimethylphenyl)acetamide] | 30 µM (≈ 12.5 µg/mL) | 30 µM (≈ 12.5 µg/mL) | 30 µM (≈ 12.5 µg/mL) | 30 µM (≈ 12.5 µg/mL) | 30 µM (≈ 12.5 µg/mL) | > 50 µg/mL | 50 µg/mL (≈ 120 µM) | > 50 µg/mL | 50 µg/mL (≈ 120 µM) | 50 µg/mL (≈ 120 µM) | > 50 µg/mL | 25 µg/mL (≈ 60.2 µM) | 15 µM (≈ 6.23 µg/mL) | 30 µM (≈ 12.5 µg/mL) | 10 mm | 15 µg/mL (≈ 36.1 µM) | 28 µg/mL (≈ 67.4 µM) | – |
| COc1ccccc1NC(=O)CSc1nc2ccccc2n1C(=O)c1ccccc1 [Compound 17, 2-(1-Benzoyl-1H-benzo[d]imidazol-2-ylthio)-N-(2-methoxyphenyl)acetamide] | 30 µM (≈ 12.5 µg/mL) | 30 µM (≈ 12.5 µg/mL) | 30 µM (≈ 12.5 µg/mL) | 30 µM (≈ 12.5 µg/mL) | 30 µM (≈ 12.5 µg/mL) | – | – | > 50 µg/mL | 50 µg/mL (≈ 120 µM) | > 50 µg/mL | – | – | 15 µM (≈ 6.26 µg/mL) | 30 µM (≈ 12.5 µg/mL) | > 20 mm | 12.5 µg/mL (≈ 29.9 µM) | 25 µg/mL (≈ 59.9 µM) | MBC (B. cereus [6]; [26]): > 50 µg/mL; MBC (B. subtilis [7]; [27]): > 50 µg/mL; MFC (A. niger [11]; [28]): > 50 µg/mL; MFC (C. albicans [12]; [29]): 50 µg/mL (≈ 120 µM); LD50 [20]: 3.17 mg/kg; inhibition at 10 µM [21]: 43.5% |
| [H]/N=C(/N)N[C@H]1[C@H](O)[C@@H](O)[C@H](O[C@@H]2O[C@@H](C)[C@](O)(C=O)[C@H]2O[C@@H]2O[C@@H](CO)[C@H](O)[C@@H](O)[C@@H]2NC)[C@@H](N/C(N)=N\[H])[C@@H]1O [Streptomycin, reference compound] | – | – | – | – | – | – | – | – | – | – | – | – | – | – | > 20 mm | 12.5 µg/mL (≈ 21.5 µM) | 25 µg/mL (≈ 43 µM) | – |
| COc1ccc(NC(=O)CSc2nc3ccccc3n2C(=O)c2ccccc2)cc1 [Compound 18, 2-(1-Benzoyl-1H-benzo[d]imidazol-2-ylthio)-N-(4-methoxyphenyl)acetamide] | 30 µM (≈ 12.5 µg/mL) | 30 µM (≈ 12.5 µg/mL) | 30 µM (≈ 12.5 µg/mL) | 30 µM (≈ 12.5 µg/mL) | 30 µM (≈ 12.5 µg/mL) | – | – | 50 µg/mL (≈ 120 µM) | > 50 µg/mL | > 50 µg/mL | – | – | 15 µM (≈ 6.26 µg/mL) | 30 µM (≈ 12.5 µg/mL) | > 20 mm | 12.5 µg/mL (≈ 29.9 µM) | 25 µg/mL (≈ 59.9 µM) | MBC (B. cereus [6]; [26]): > 50 µg/mL; MBC (B. subtilis [7]; [27]): > 50 µg/mL; MFC (A. niger [11]; [28]): > 50 µg/mL; MFC (C. albicans [12]; [29]): 50 µg/mL (≈ 120 µM); LD50 [20]: 3.15 mg/kg; inhibition at 10 µM [21]: 64.6% |
